# Laboratory results published in PubChem BioAssay AID1918942 (Molecular Pharmacology Branch, DTP, NCI, 2023).
# Tested on: 743489-274-T-PDC complex spheroid viability
# Assay: Anticancer human tumor 743489-274-T-PDC patient-derived renal cell carcinoma cell line growth inhibition
# Conditions: for IC50: curve of first compound; for viability, T/C: stronger effect = lower value
# How it was run: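 Complex spheroids of tumor cells with HUVEC and human MSCs, exposed to iadademstat combined with other agents. Each agent tested in half-log steps from near clinical Cmax (else 10 microM top), DMSO ≤0.25%.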
# [1] = second compound 0.1 µM, first compound 0.00316 µM
# [2] = second compound 0.1 µM, first compound 0.01 µM
# [3] = second compound 0.1 µM, first compound 0.0316 µM
# [4] = second compound 0.1 µM, first compound 0.1 µM
# [5] = second compound 0.1 µM, first compound 0.316 µM
# [6] = second compound 0.1 µM, first compound 1 µM
# [7] = second compound 0.316 µM, first compound 0.00316 µM
# [8] = second compound 0.316 µM, first compound 0.01 µM
# [9] = second compound 0.316 µM, first compound 0.0316 µM
# [10] = second compound 0.316 µM, first compound 0.1 µM
# [11] = second compound 0.316 µM, first compound 0.316 µM
# [12] = second compound 0.316 µM, first compound 1 µM
# [13] = second compound 1 µM, first compound 0.00316 µM
# [14] = second compound 1 µM, first compound 0.01 µM
# [15] = second compound 1 µM, first compound 0.0316 µM
# [16] = second compound 1 µM, first compound 0.1 µM
# [17] = second compound 1 µM, first compound 0.316 µM
# [18] = second compound 1 µM, first compound 1 µM
# [19] = second compound 3.16 µM, first compound 0.00316 µM
# [20] = second compound 3.16 µM, first compound 0.01 µM
# [21] = second compound 3.16 µM, first compound 0.0316 µM
# [22] = second compound 3.16 µM, first compound 0.1 µM
# [23] = second compound 3.16 µM, first compound 0.316 µM
# [24] = second compound 3.16 µM, first compound 1 µM
# [25] = second compound 10 µM, first compound 0.00316 µM
# [26] = second compound 10 µM, first compound 0.01 µM
# [27] = second compound 10 µM, first compound 0.0316 µM
# [28] = second compound 10 µM, first compound 0.1 µM
# [29] = second compound 10 µM, first compound 0.316 µM
# [30] = second compound 10 µM, first compound 1 µM
# 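Note: spheroids exposed to compounds for 7 days before readout.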
# 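Throughout, for viability, T/C: 100% = DMSO vehicle control wells.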
compound,measurement,setting,value
O=C(C=Cn1cnc(-c2cc(C(F)(F)F)cc(C(F)(F)F)c2)n1)NNc1cnccn1 + NC1CC1c1ccc(-c2cccc(O)c2)cc1,IC50,second compound 0.1 µM,> 1000 nM
same,IC50,second compound 0.316 µM,> 1000 nM
same,IC50,second compound 1 µM,> 1000 nM
same,IC50,second compound 3.16 µM,> 1000 nM
same,IC50,second compound 10 µM,> 1000 nM
same,"viability, T/C",[1],97.6%
same,"viability, T/C",[2],103%
same,"viability, T/C",[3],113%
same,"viability, T/C",[4],85.8%
same,"viability, T/C",[5],97.9%
same,"viability, T/C",[6],86.2%
same,"viability, T/C",[7],102%
same,"viability, T/C",[8],99.8%
same,"viability, T/C",[9],108%
same,"viability, T/C",[10],99.6%
same,"viability, T/C",[11],76.4%
same,"viability, T/C",[12],74.6%
same,"viability, T/C",[13],99.1%
same,"viability, T/C",[14],103%
same,"viability, T/C",[15],118%
same,"viability, T/C",[16],88%
same,"viability, T/C",[17],89.4%
same,"viability, T/C",[18],67.4%
same,"viability, T/C",[19],98.7%
same,"viability, T/C",[20],105%
same,"viability, T/C",[21],119%
same,"viability, T/C",[22],91.3%
same,"viability, T/C",[23],74.6%
same,"viability, T/C",[24],69.5%
same,"viability, T/C",[25],96.2%
same,"viability, T/C",[26],101%
same,"viability, T/C",[27],102%
same,"viability, T/C",[28],98.6%
same,"viability, T/C",[29],86.1%
same,"viability, T/C",[30],57.4%
COc1cc(C2c3cc4c(cc3C(OC3OC5COC(C)OC5C(O)C3O)C3COC(=O)C23)OCO4)cc(OC)c1O (stereo not given) + NC1CCC(NC2CC2c2ccccc2)CC1,IC50,second compound 0.1 µM,> 3000 nM
same,IC50,second compound 0.316 µM,> 3000 nM
same,IC50,second compound 1 µM,> 3000 nM
same,IC50,second compound 3.16 µM,> 3000 nM
same,IC50,second compound 10 µM,> 3000 nM
same,"viability, T/C","second compound 0.1 µM, first compound 0.00949 µM",108%
same,"viability, T/C","second compound 0.1 µM, first compound 0.03 µM",119%
same,"viability, T/C","second compound 0.1 µM, first compound 0.0949 µM",112%
same,"viability, T/C","second compound 0.1 µM, first compound 0.3 µM",96.6%
same,"viability, T/C","second compound 0.1 µM, first compound 0.949 µM",106%
same,"viability, T/C","second compound 0.1 µM, first compound 3 µM",85.7%
same,"viability, T/C","second compound 0.316 µM, first compound 0.00949 µM",105%
same,"viability, T/C","second compound 0.316 µM, first compound 0.03 µM",105%
same,"viability, T/C","second compound 0.316 µM, first compound 0.0949 µM",97.8%
same,"viability, T/C","second compound 0.316 µM, first compound 0.3 µM",94.8%
same,"viability, T/C","second compound 0.316 µM, first compound 0.949 µM",91.7%
same,"viability, T/C","second compound 0.316 µM, first compound 3 µM",95.3%
same,"viability, T/C","second compound 1 µM, first compound 0.00949 µM",118%
same,"viability, T/C","second compound 1 µM, first compound 0.03 µM",121%
same,"viability, T/C","second compound 1 µM, first compound 0.0949 µM",117%
same,"viability, T/C","second compound 1 µM, first compound 0.3 µM",110%
same,"viability, T/C","second compound 1 µM, first compound 0.949 µM",93.2%
same,"viability, T/C","second compound 1 µM, first compound 3 µM",97.9%
same,"viability, T/C","second compound 3.16 µM, first compound 0.00949 µM",125%
same,"viability, T/C","second compound 3.16 µM, first compound 0.03 µM",113%
same,"viability, T/C","second compound 3.16 µM, first compound 0.0949 µM",115%
same,"viability, T/C","second compound 3.16 µM, first compound 0.3 µM",110%
same,"viability, T/C","second compound 3.16 µM, first compound 0.949 µM",99%
same,"viability, T/C","second compound 3.16 µM, first compound 3 µM",87.9%
same,"viability, T/C","second compound 10 µM, first compound 0.00949 µM",117%
same,"viability, T/C","second compound 10 µM, first compound 0.03 µM",115%
same,"viability, T/C","second compound 10 µM, first compound 0.0949 µM",112%
same,"viability, T/C","second compound 10 µM, first compound 0.3 µM",111%
same,"viability, T/C","second compound 10 µM, first compound 0.949 µM",98.6%
same,"viability, T/C","second compound 10 µM, first compound 3 µM",111%
Nc1ncn(C2CC(O)C(CO)O2)c(=O)n1 (stereo not given) + NC1CCC(NC2CC2c2ccccc2)CC1,IC50,second compound 0.1 µM,> 1000 nM
same,IC50,second compound 0.316 µM,> 1000 nM
same,IC50,second compound 1 µM,> 1000 nM
same,IC50,second compound 3.16 µM,> 1000 nM
same,IC50,second compound 10 µM,> 1000 nM
same,"viability, T/C",[1],107%
same,"viability, T/C",[2],113%
same,"viability, T/C",[3],110%
same,"viability, T/C",[4],109%
same,"viability, T/C",[5],105%
same,"viability, T/C",[6],105%
same,"viability, T/C",[7],122%
same,"viability, T/C",[8],119%
same,"viability, T/C",[9],107%
same,"viability, T/C",[10],107%
same,"viability, T/C",[11],98%
same,"viability, T/C",[12],98.4%
same,"viability, T/C",[13],107%
same,"viability, T/C",[14],113%
same,"viability, T/C",[15],114%
same,"viability, T/C",[16],92%
same,"viability, T/C",[17],105%
same,"viability, T/C",[18],105%
same,"viability, T/C",[19],127%
same,"viability, T/C",[20],122%
same,"viability, T/C",[21],108%
same,"viability, T/C",[22],95.9%
same,"viability, T/C",[23],94%
same,"viability, T/C",[24],97.8%
same,"viability, T/C",[25],104%
same,"viability, T/C",[26],122%
same,"viability, T/C",[27],131%
same,"viability, T/C",[28],97.2%
same,"viability, T/C",[29],103%
same,"viability, T/C",[30],97.3%
